Reference: PubChem BioAssay AID651581 (Sanford-Burnham Center for Chemical Genomics, 2012)
Active and inactive are the calls of the source. No rule for the calls is given here.

Tests used:
[1] = biological target: Endothelial PAS domain-containing protein 1 (Homo sapiens) (UniProt Q99814); assay: potency against HIF reporters across cell lines – luminescence, panel, selectivity assay for HIF-2a inhibitor project, dose response (AID 651581); conditions: human cell HIF reporter
[2] = biological target: Hypoxia-inducible factor 1-alpha (Homo sapiens) (UniProt Q16665); assay: as above; conditions: human cell HIF reporter, HIF-1a
Chain of Hypoxia-inducible factor 1-alpha (Homo sapiens) (Q16665 whole entry, looked up): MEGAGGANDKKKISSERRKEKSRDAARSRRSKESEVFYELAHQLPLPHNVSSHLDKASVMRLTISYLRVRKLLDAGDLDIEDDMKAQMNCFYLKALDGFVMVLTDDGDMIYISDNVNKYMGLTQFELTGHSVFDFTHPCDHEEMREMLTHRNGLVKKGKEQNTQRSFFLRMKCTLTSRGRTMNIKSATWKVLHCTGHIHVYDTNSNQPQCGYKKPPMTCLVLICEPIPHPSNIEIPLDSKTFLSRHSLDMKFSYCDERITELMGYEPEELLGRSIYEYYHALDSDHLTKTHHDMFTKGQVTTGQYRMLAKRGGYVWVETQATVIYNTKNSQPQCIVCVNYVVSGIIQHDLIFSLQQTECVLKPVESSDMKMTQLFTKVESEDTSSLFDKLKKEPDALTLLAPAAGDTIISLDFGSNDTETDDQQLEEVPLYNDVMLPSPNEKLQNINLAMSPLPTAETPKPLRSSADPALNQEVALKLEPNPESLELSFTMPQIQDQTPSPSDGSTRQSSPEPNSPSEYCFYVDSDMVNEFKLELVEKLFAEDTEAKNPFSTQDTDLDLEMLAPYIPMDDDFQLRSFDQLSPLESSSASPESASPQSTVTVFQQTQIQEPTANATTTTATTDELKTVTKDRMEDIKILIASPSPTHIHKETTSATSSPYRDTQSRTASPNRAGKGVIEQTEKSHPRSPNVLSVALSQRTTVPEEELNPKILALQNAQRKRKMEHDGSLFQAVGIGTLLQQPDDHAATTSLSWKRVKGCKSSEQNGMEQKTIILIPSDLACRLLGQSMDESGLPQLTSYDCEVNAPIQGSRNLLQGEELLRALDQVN

Compound | IC50 ([1]; HIF-2a PANC, mean of runs) | IC50 ([1]; HIF-2a PANC, run 1) [µM] | IC50 ([1]; HIF-2a PANC, run 2) [µM] | IC50 ([1]; HIF-2a, mean of runs) | IC50 ([1]; HIF-2a, run 1) [µM] | IC50 ([1]; HIF-2a, run 2) [µM] | IC50 ([2]; mean of runs) | IC50 ([2]; run 1) [µM] | IC50 ([2]; run 2) [µM]
C/C(=N\NC(=O)c1n[nH]c2c1CCC2)c1cccs1 | inactive | 27.1 | 15.3 | 4.55 µM | 4.42 | 4.68 | inactive | 13.7 | 11.6
Cc1cc(NC(=O)c2ccccc2)c(Cl)cc1N | inactive | 10.1 | 19.5 | 2.75 µM | 2.56 | 2.94 | 11.5 µM | 10 | 12.9
Cc1nn(-c2ccccc2)c(Cl)c1/C=N/Nc1ccc(Cl)c(C(=O)O)c1 | – | > 99 | > 99 | – | < 30 | > 99 | > 99 µM (inactive) | > 99 | > 99
O=C1C=CC(=O)N1c1cccc(-c2ccccc2)c1 | – | > 99 | 58.5 | 8.09 µM | 7.96 | 8.22 | 31.4 µM | 26.2 | 36.6
Nc1ccc(-c2ncc(-c3ccccc3)o2)cc1 | 0.247 µM | 0.202 | 0.292 | < 0.3 µM | < 0.3 | < 1 | 26.7 µM | 52.5 | 0.851
O=C(Nc1ccc(Cl)cc1Cl)c1cccc(N2C(=O)C=CC2=O)c1 | – | > 99 | 28.1 | 8.1 µM | 7.79 | 8.42 | 41.1 µM | 47.8 | 34.5
COCCn1c(C)cc(C(=O)CSc2nnc(C)s2)c1C | 7.96 µM | 3.81 | 12.1 | 5.99 µM | 6.5 | 5.48 | inactive | 8.55 | 18.9
O=C(CCCSc1nc2ccccc2s1)NC1=NCCS1 | 7.38 µM | 7.27 | 7.49 | 6.38 µM | 7.04 | 5.72 | inactive | 15 | 10.5
CCOc1ccc(C(=O)Nc2cccc(C(=O)O)c2C)cc1Cl | 28.2 µM | 25 | 31.5 | inactive | 13.3 | 16.6 | – | > 30 | > 99
CC(C)C[C@@H](N)c1nnc(SCC(=O)c2ccc(Cl)cc2)o1 | 3.91 µM | 4.22 | 3.6 | 4.02 µM | 4.09 | 3.94 | – | > 99 | > 99
S=C(c1ccc(-c2ccccc2)cc1)N1CCOCC1 | 2.79 µM | 2.51 | 3.07 | 1.06 µM | 0.98 | 1.15 | inactive | 1.48 | 2.53
CCOC(=O)Cc1csc(NC(=S)NC(=O)c2ccccc2)n1 | – | 41 | < 10 | 3.69 µM | 3.72 | 3.66 | 22.1 µM | 23.3 | 20.9
CCN(CC)CCCC(C)n1c2nc(=O)[nH]c(=O)c-2nc2cc(Cl)ccc21 (configuration not stated) | 3.53 µM | 2.56 | 4.5 | 9.02 µM | 8.43 | 9.61 | inactive | 18.1 | 15.8
Cn1c(/C=C/c2ccc(Cl)cc2)c([N+](=O)[O-])c(=O)n(C)c1=O | 34.3 µM | 29.4 | 39.1 | inactive | 12.5 | 11.9 | inactive | 26 | 24.3
Cc1cc(C)cc(C(=O)NC(=S)Nc2ccc(-c3cc4ccccc4oc3=O)cc2)c1 | – | > 99 | > 99 | > 99 µM (inactive) | > 99 | > 99 | > 99 µM (inactive) | > 99 | > 99
O=C(Nc1cc(S(=O)(=O)N2CCOCC2)ccc1Cl)c1cc([N+](=O)[O-])ccc1Cl | – | > 99 | 80.5 | inactive | 15.1 | 13.9 | inactive | 23.9 | 17.6
Cc1c(CCC(=O)NCCC(=O)O)c(=O)oc2c(C)c3oc4c(c3cc12)CCCC4 | 2.65 µM | 2.34 | 2.96 | 3.08 µM | 2.85 | 3.32 | inactive | 1.23 | 14.5
NC(=O)COC(=O)CCCSc1nc2ccccc2s1 | – | > 99 | 81.1 | 8.53 µM | 8.5 | 8.56 | inactive | 5.5 | 12.1
COc1cc(/C=C/[N+](=O)[O-])ccc1O | > 99 µM (inactive) | > 99 | > 99 | inactive | 11.7 | 10.3 | inactive | 25.2 | 28.3
CCOC(=O)Cc1csc(NC(=S)NC(=O)c2ccc([N+](=O)[O-])cc2)n1 | inactive | 35.8 | 34.5 | 5.93 µM | 5.83 | 6.03 | 51 µM | 55.3 | 46.8
Cc1c(CCC(=O)O)c(=O)oc2cc3oc4c(c3cc12)CCCC4 | 0.708 µM | 0.793 | 0.623 | 0.276 µM | 0.267 | 0.286 | 1.12 µM | 1.15 | 1.08
O=C(O)COc1ccc2oc3ccccc3c2c1 | inactive | 75.3 | 20.5 | inactive | 13.1 | 12.7 | 43.4 µM | 27.8 | 59
CC(=O)Nc1ccc(NC(=O)c2c([N+](=O)[O-])c(C(C)(C)C)nn2C)cc1 | 11 µM | 11.2 | 10.8 | inactive | 10.8 | 11.6 | inactive | 9.31 | 22.8
Cc1cc(SC#N)cc(C)c1NC(=O)CCl | – | > 99 | 93.4 | inactive | 12.6 | 7.78 | inactive | 20.2 | 28.5
CCOC(=O)C1CCN(C(=O)CCc2c(C)nc3cc(-c4ccccc4)nn3c2C)CC1 | 2.16 µM | 1.83 | 2.48 | 1.39 µM | 1.51 | 1.27 | 9.79 µM | 12.6 | 6.98
CN(C)c1ccc(Nc2nc(N)c3ccccc3n2)cc1 | 17.9 µM | 24.8 | 11 | < 30 µM (inactive) | < 30 | < 30 | – | 13.7 | < 30
